Data published in patent US5801191A, “Taxoids” (Biophysica Foundation, priority 1995, dated 1998).
“Also recorded” adds a separate entry of the source.

Columns and labels:
[1] = tested on: panel of human tumor cell lines; experiment: Cytotoxic activity in a panel of human tumor cell lines as compared to paclitaxel
[2] = Water solubility / formulation in aqueous vehicles
[3] = tested on: Ln-Cap Prostate Carcinoma; settings: lncap cells
[4] = tested on: DU-145 Prostate Carcinoma; settings: du-145 cells
MCF-7 Breast Carcinoma = settings: mcf-7 cells
[5] = tested on: Ovcar-3 Ovarian Carcinoma; settings: ovcar-3 cells
PC-3 Prostate Carcinoma = settings: pc-3 cells
Molt-4 T-cell Leukemia = settings: molt-4 cells
[6] = tested on: PC-3 human prostate tumor; experiment: In vivo efficacy against established PC-3 human prostate tumor in athymic nude mice
Source text: Example 11. In vivo efficacy of Taxoid BP-193

[7] = background; cited from earlier work
[8] = Physician's Desk Reference (1994) 670, cited from earlier work

For `CC(=O)O[C@H]1C(=O)[C@@]2(C)[C@H]([C@H](OC(=O)c3ccccc3)[C@]3(O)C[C@H](OC(=O)[C@H](OC(=O)OCC(O)CO)[C@@H](NC(=O)c4ccccc4)c4ccccc4)C(C)=C1C3(C)C)[C@]1(OC(C)=O)CO[C@@H]1C[C@@H]2O` (stereo partly shown) [BP-171, 2'-(2",3"-dihydroxypropylcarbonoxy)paclitaxel], the “cytotoxic activity as compared to paclitaxel” value [1] was “cytotoxic activity equal to, or greater than, paclitaxel”, the “formulation in aqueous vehicles” value [2] was “readily formulated in standard aqueous vehicles” and the “water solubility as compared with paclitaxel” value [2] was “more water soluble than paclitaxel; also recorded: enhanced water solubility as compared with paclitaxel”.
In the case of `CC(=O)O[C@H]1C(=O)[C@@]2(C)[C@H]([C@H](OC(=O)c3ccccc3)[C@]3(O)C[C@H](OC(=O)[C@H](OC(=O)NCC(O)CO)[C@@H](NC(=O)c4ccccc4)c4ccccc4)C(C)=C1C3(C)C)[C@]1(OC(C)=O)CO[C@@H]1C[C@@H]2O` (stereo partly shown) [BP-174, 2'-(2",3"-dihydroxypropylcarbamoxy) paclitaxel], the “cytotoxic activity as compared to paclitaxel” value [1] is reported as “comparable cytotoxic activity to paclitaxel”, the “formulation in aqueous vehicles” value [2] is reported as “readily formulated in standard aqueous vehicles” and the “water solubility as compared with paclitaxel” value [2] is reported as “more water soluble than paclitaxel; also recorded: enhanced water solubility as compared with paclitaxel”.
For `CC(=O)O[C@H]1C(=O)[C@]2(C)[C@@H](OC(=O)OCC(O)CO)C[C@H]3OC[C@@]3(OC(C)=O)[C@H]2[C@H](OC(=O)c2ccccc2)[C@]2(O)C[C@H](OC(=O)[C@H](OC(=O)OCC(O)CO)[C@@H](NC(=O)c3ccccc3)c3ccccc3)C(C)=C1C2(C)C` (stereo partly shown) [BP-177, 2',7-di(2",3"-dihydroxypropylcarbonoxy)paclitaxel], the IC50 [3] was 27.1 nM, the IC50 [4] was 91.4 nM and the IC50 (MCF-7 Breast Carcinoma) was 335 nM. The IC50 [5] was 50 nM, the IC50 (PC-3 Prostate Carcinoma) was 57.3 nM and the “cytotoxic activity as compared to paclitaxel” value [1] was “comparable cytotoxic activity to paclitaxel”. The “formulation in aqueous vehicles” value [2] was “readily formulated in standard aqueous vehicles”, the “water solubility as compared with paclitaxel” value [2] was “more water soluble than paclitaxel” and the IC50 (Molt-4 T-cell Leukemia) was 703 nM.
`CC(=O)O[C@H]1C(=O)[C@]2(C)[C@@H](OC(=O)OCC(O)CO)C[C@H]3OC[C@@]3(OC(C)=O)[C@H]2[C@H](OC(=O)c2ccccc2)[C@]2(O)C[C@H](OC(=O)[C@H](O)[C@@H](NC(=O)c3ccccc3)c3ccccc3)C(C)=C1C2(C)C` (stereo partly shown) [BP-179, 7-(2",3"-dihydroxypropylcarbonoxy)paclitaxel] showed an IC50 [3] of 20.5 nM, an IC50 [4] of 20.5 nM and an IC50 (MCF-7 Breast Carcinoma) of 815 nM. It also gave an IC50 [5] of 50 nM, an IC50 (PC-3 Prostate Carcinoma) of 3.24 nM and an IC50 (Molt-4 T-cell Leukemia) of 199 nM.
With `CC(=O)O[C@H]1C(=O)[C@@]2(C)[C@H]([C@H](OC(=O)c3ccccc3)[C@]3(O)C[C@H](OC(=O)[C@H](OC(=O)OCCC(O)CO)[C@@H](NC(=O)c4ccccc4)c4ccccc4)C(C)=C1C3(C)C)[C@]1(OC(C)=O)CO[C@@H]1C[C@@H]2O` (stereo partly shown) [BP-193, 2'-(3^11,4"-dihydroxybutyl-carbonoxy)paclitaxel] the IC50 [3] was 19.5 nM, the IC50 [4] was 1.4 nM and the IC50 (MCF-7 Breast Carcinoma) was 8.65 nM. The IC50 [5] was 55 nM, the “toxicity as compared with paclitaxel” value ([6]; PC-3 tumor-bearing mice) was “lacking the toxicity of paclitaxel” and the tumor regression ([6]; all mice treated with BP-193) was “all tumors regressed to pretreatment levels”. For the same compound, the “anti-cellular proliferative activity, as measured by the reduction in tumor growth” value ([6]; established PC-3 tumor, vs vehicle and Taxol control) was “significant anti-cellular proliferative activity”, the IC50 (PC-3 Prostate Carcinoma) was 1550 nM and the “cytotoxic activity as compared to paclitaxel” value [1] was “cytotoxic activity equal to, or greater than, paclitaxel”. The “formulation in aqueous vehicles” value [2] was “readily formulated in standard aqueous vehicles”, the “water solubility as compared with paclitaxel” value [2] was “more water soluble than paclitaxel” and the IC50 (Molt-4 T-cell Leukemia) was 3.97 nM.
For `CC(=O)O[C@H]1C(=O)[C@]2(C)[C@@H](OC(=O)NCCN3C(=S)N(c4ccc(C#N)c(C(F)(F)F)c4)C(=O)C3(C)C)C[C@H]3OC[C@@]3(OC(C)=O)[C@H]2[C@H](OC(=O)c2ccccc2)[C@]2(O)C[C@H](OC(=O)[C@H](O)[C@@H](NC(=O)c3ccccc3)c3ccccc3)C(C)=C1C2(C)C` [BP-196, 7-[imidazolidinyl-5", 5"-dimethyl-4"-oxo-3"-[(4"'-cyano-3"'-trifluoromethyl)phenyl]-2"-thioxo-1"ethylcarbamoxy]paclitaxel], the “cytotoxic activity as compared to paclitaxel” value [1] was “comparable cytotoxic activity to paclitaxel”, the “formulation in aqueous vehicles” value [2] was “readily formulated in standard aqueous vehicles” and the “water solubility as compared with paclitaxel” value [2] was “more water soluble than paclitaxel”.
`CC(=O)O[C@H]1C(=O)[C@@]2(C)[C@H]([C@H](OC(=O)c3ccccc3)[C@]3(O)C[C@H](OC(=O)[C@H](O)[C@@H](NC(=O)c4ccccc4)c4ccccc4)C(C)=C1C3(C)C)[C@]1(OC(C)=O)CO[C@@H]1C[C@@H]2O` [Taxol, paclitaxel, reference compound] gave an IC50 [3] of 1.5 nM, an IC50 [4] of 2.12 nM and an IC50 (MCF-7 Breast Carcinoma) of 5 nM. For the same compound, the IC50 [5] was 2.24 nM, the “side effects (hypersensitivity, myelosuppression, neuropathy, alopecia, cardio-toxicity)” value [7] was “about 30 % of patients” and the “plasma concentration following infusion” value [8] was “rapidly declines following infusion”. For the same compound, the “mean steady state volume of distribution” value ([8]; following infusion) was 42 to 162 LIm^2.
